How the values were obtained:
[1] = biological target: T1, p67^phox binding to Rac1V12 (Homo sapiens, UniProt P19878); assay: competition binding of p67phox with Rac1V12 by microscale thermophoresis; conditions: 5 μM, 15 min prior to titration of Rac1V12
T1 construct: using the pET30-HIS p67(1-212) plasmid; His; made in house; host or cells: E. coli BL21(DE3) for p67phox
T1 sequence (P19878 1-212): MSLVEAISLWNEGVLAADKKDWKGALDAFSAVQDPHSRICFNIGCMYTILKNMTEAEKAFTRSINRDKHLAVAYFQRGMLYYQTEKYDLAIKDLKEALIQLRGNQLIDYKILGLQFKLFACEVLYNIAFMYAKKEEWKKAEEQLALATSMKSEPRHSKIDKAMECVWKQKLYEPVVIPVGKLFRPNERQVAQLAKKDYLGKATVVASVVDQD
Method: Proteins were labeled for microscale thermophoresis using the Monolith NT Protein Labeling Kit Red (Nano Temper Technologies) as recommended by the manufacturer. Binding reactions were carried out using the Monolith NT. 115 (Nano Temper Technologies). Binding data was analyzed using Graphpad Prizm to estimate Kd values. The arbitrary fluorescence value from the thermophoresis plots for the smallest compound titration was subtracted from every other data point (Delta depletion) prior to normalization to a Vmax of 100. In thermophoresis plots where there was no binding, a curve could not be fit and therefore no Vmax could be assigned. In these instances the highest delta depletion value was set to 100 and all data were normalized accordingly.
Next, to perform a competition binding, p67^phox protein was first incubated with either 5 μM Phox-I1 or an equal volume of vehicle control for 15 min prior to titration of purified Rac1V12 protein. […] Thus, Phox-I1 binding to p67^phox is specific and not due to nonspecific effects, such as aggregation.

[2] = test system: PMA-induced ROS production in human neutrophils; assay: luminol chemiluminescence assay of PMA induced ROS production; format: cell-based
Method: (§1) Human neutrophils (2×10^5) were stimulated in HBSS supplemented with 0.1% BSA, 1 mM Ca2+, 1 mM Mg2+ and with fMLP (10 μM), PMA (300 nM) or glucose oxidase (200 mU/ml) for 30 min in the presence of 10 μM [8-amino-5-chloro-7-phenylpyrido[3,4-d]pyridazine-1,4(2H,3H)dione] (L012).
(§2) Chemiluminescence was measured using GloMax®-96 Microplate Luminometer (Promega) (Tarpey et al., (2004) Am J Physiol Regul Integr Comp Physiol 286: R431-R444, hereby incorporated by reference in its entirety). The generation of […] by the xanthine/xanthine oxidase was performed in PBS supplemented with xanthine oxidase (0.004 U), HRP (0.005 U·mL^−1) and L012, following the protocol described in Wind et al., (2010) Br J Pharmacol. 161, 885-898, hereby incorporated by reference in its entirety. The reaction was started by the addition of xanthine (0.5 mM).

[3] = test system: glucose oxidase-produced ROS; assay: luminol chemiluminescence assay of glucose oxidase-generated ROS; format: cell-based, human
Method: as §1, §2

- effect on glucose oxidase-produced ROS [3]: did not affect
SMILES: COc1ccc2c(c1)C1C=C(c3ccccc3)NN1C(c1cccc([N+](=O)[O-])c1)O2 (stereo not drawn) [Phox-I1]
- competition with Rac1V12 for p67^phox [1]: disruption of p67^phox binding to Rac1V12
- effect on PMA-induced ROS production [2]: did not affect
